Source: patent US11505534B2, “Highly diastereoselective construction of the 4,5-spirocycle via palladium-catalyzed intramolecular alkenylation” (The University of Chicago, priority 2017, dated 2022)

What was measured:
[1] = test system: interleukin-2 (IL-2) production in a B cell lymphoma cell line; assay: suppression of interleukin-2 (IL-2) production in a B cell lymphoma cell line; format: cell-based; details: 100 micromolar (μM) concentrations of the compounds, preliminary biological testing
Description: In some embodiments, the presently disclosed subject matter provides phainanoid analogs, as well as compounds that can be used as synthetic intermediates in preparing phainanoids and phainanoid analogs. In particular, the presently disclosed phainanoid analogs include the benzofuran-based 4,5-spirocycle with the strained exocyclic olefin motif present in the “western” part of the natural product phainanoids. Given the inclusion of this motif, it is believed that the presently disclosed phainanoid analogs can be useful as novel immunosuppressive agents, e.g., for the treatment of diseases characterized by an aberrant immune response, such as autoimmune and/or inflammatory diseases, as well as during transplant operations.

| Structure (SMILES) | immunosuppressive activity (suppression of interleukin-2 (IL-2) production) [1] | melting point [°C] |
| --- | --- | --- |
| C[C@@]12CCCC=C1[C@@]1(C2)Oc2ccccc2C1=O [Compound 7] | complete suppression |  |
| C[C@]12C[C@@]3(Oc4ccccc4C3=O)C1=CC[C@]1(C)c3ccccc3CC[C@@H]21 [Compound 8] | complete suppression | 174 to 177 |
| C[C@]1(/C=C2\Oc3ccccc3C2=O)[C@@H](O)CC[C@]2(C)c3ccccc3CC[C@@H]12 [Compound 25] | complete suppression |  |
